Patent US10174380B2, “Methods for predicting multiple myeloma treatment response” (INSERM (INSTITUT NATIONAL DE LA SANTE ET DE LA RECHERCHE …, priority 2012, dated 2019)
Where “and” joins values, the source holds several entries; their conditions need not be identical. Identical values can stand only once. Like-named read-outs stand apart in the source and are kept apart here. Each block holds one molecule with its values, some of them ahead of it.

Key:
Type in all cases: cell-based, human
[1] = system: 5 HMCLs with low HA Score; experiment: Growth assay for myeloma cells (Cell Titer Glo, intracellular ATP), HMCLs with low HA Score; details: 4 days culture, read-out: median IC50
Protocol: (§1) Data are mean values plus or minus standard deviation (SD) of 5 experiments determined on sextuplet culture wells.
(§2) HMCLs were cultured for 4 days in 96-well flat-bottom microtiter plates in RPMI 1640 medium, 10% FCS, 2 ng/ml IL-6 culture medium (control), with graded Panobinostat (A), VPA […] or SAHA (C) concentrations. Data are mean values plus or minus standard deviation (SD) of 5 experiments determined on sextuplet culture wells.
(§3) Cell growth was evaluated by quantifying intracellular ATP amount with a Cell Titer Glo Luminescent Assay (Promega, Madison, Wis.) with a Centro LB 960 luminometer (Berthold Technologies, Bad Wildbad, Germany).
(§4) The inventors sought to determine whether HA Score could predict for the sensitivity of 10 HMCLs to HDAC inhibitor.
(§5) The inventors sought to determine whether HA Score could predict for the sensitivity of myeloma cells to clinical grade HDAC inhibitors {Neri, 2012 #3317}.

[2] = system: 5 HMCLs with the highest HA Score; experiment: Growth assay for myeloma cells (Cell Titer Glo, intracellular ATP), HMCLs with high HA Score; details: 4 days culture, read-out: median IC50
Protocol: as §1, §2, §3, §4, §5

[3] = system: Five HMCLs; experiment: Cell viability of the five TSA treated HMCLs (summary statement); details: 0.33 μM TSA for 24 h
Protocol: (§6) The human MM cell lines XG-5, XG-6, XG-7, XG-20 and LP1 were grown in RPMI 1640 supplemented with 10% fetal bovine serum and 2 ng/mL recombinant IL-6. […] Control cells were cultured in the same conditions without TSA.
The prognostic information of HDACi regulated genes was gathered within an histone acetylation score (HA Score), which was the sum of the beta coefficients of the Cox model weighted by ±1 according to the patient MMC signal above or below the probe set maxstat value as described (34).

[4] = system: primary MMCs of patients with high HA Score; experiment: Mononuclear cell culture, CD138+ viable plasma cell count, patients with high HA Score; details: day 4; for Myeloma cell number/culture well: individual patients with high HA Score; for Myeloma cell number/culture well, Mean: mean of 8 patients with high HA Score
Protocol: (§7) At day 4 of culture, the cell count and the viability were determined and the percentage of CD138^+ viable plasma cells was determined by flow cytometry. Black color represents patients with high HA Score (N=8) and white represents patients with low HA Score values (N=5).
(§8) In each culture group, viability and cell counts were assayed and MMCs were stained with an anti-CD138-PE mAb (Immunotech, Marseille, France) as previously described (35).
(§9) The characteristics of patients with MM included in this study are described in Table 3.

[5] = system: primary MMCs of patients with low HA Score; experiment: Mononuclear cell culture, CD138+ viable plasma cell count, patients with low HA Score; details: day 4; for Myeloma cell number/culture well: individual patients with low HA Score; for Myeloma cell number/culture well, Mean: mean of 5 patients with low HA Score
Protocol: as §7, §8, §9

[6] = system: XG-6; experiment: Cell viability by trypan blue exclusion; details: 0.33 μM TSA, 24 h (Day 1), mean ± SD, 3 experiments
Protocol: as §6

[7] = system: XG-7; experiment: Cell viability by trypan blue exclusion; details: 0.33 μM TSA, 24 h (Day 1), mean ± SD, 3 experiments
Protocol: as §6

[8] = system: XG-5; experiment: Cell viability by trypan blue exclusion; details: 0.33 μM TSA, 24 h (Day 1), mean ± SD, 3 experiments
Protocol: as §6

[9] = system: LP1; experiment: Cell viability by trypan blue exclusion; details: 0.33 μM TSA, 24 h (Day 1), mean ± SD, 3 experiments
Protocol: as §6

[10] = system: XG-20; experiment: Cell viability by trypan blue exclusion; details: 0.33 μM TSA, 24 h (Day 1), mean ± SD, 3 experiments
Protocol: as §6

[11] = Homo sapiens, 96 h, IL-6 2 ng/ml

- IC50 [1, 11]: 3.16 nM
- IC50 [2, 11]: 1.16 nM
SMILES: Cc1[nH]c2ccccc2c1CCNCc1ccc(/C=C/C(=O)NO)cc1 [Panobinostat, panobinostat]

- IC50 ([1]; Homo sapiens, 96 h): 430 nM
- IC50 ([2]; Homo sapiens, 96 h): 280 nM
SMILES: CCCC(CCC)C(=O)O [VPA, valproic acid]

SMILES: CC(/C=C/C(=O)NO)=C\[C@@H](C)C(=O)c1ccc(N(C)C)cc1 [TSA, trichostatin A]
- effect on myeloma cell viability [3]: did not affect myeloma cell viability
- Myeloma cell number/culture well ([4]; 5.1 nM TSA): 43320 and 115520 and 72200 and 83752 and 19950 and 37544 and 48249 and 78844
- Myeloma cell number/culture well, Mean ([4]; 5.1 nM TSA): 62422
- Myeloma cell number/culture well ([4]; 10.3 nM TSA): 31086 and 45216 and 50868 and 25434 and 12170 and 33912 and 38249 and 41860
- Myeloma cell number/culture well, Mean ([4]; 10.3 nM TSA): 34849
- Myeloma cell number/culture well ([4]; 20.7 nM TSA): 22880 and 20592 (2×) and 38896 and 7650 and 18304 and 29064 and 32752
- Myeloma cell number/culture well, Mean ([4]; 20.7 nM TSA): 23841
- Myeloma cell number/culture well ([4]; 41.3 nM TSA): 7250 (2×) and 29000 and 18850 and 11600 and 1736 and 5238 and 29790
- Myeloma cell number/culture well, Mean ([4]; 41.3 nM TSA): 13839
- Myeloma cell number/culture well ([5]; 5.1 nM TSA): 72200 and 60648 and 14750 and 306768 and 19100
- Myeloma cell number/culture well, Mean ([5]; 5.1 nM TSA): 94693
- Myeloma cell number/culture well ([5]; 10.3 nM TSA): 64998 and 62172 and 18486 and 254478 and 19458
- Myeloma cell number/culture well, Mean ([5]; 10.3 nM TSA): 83918
- Myeloma cell number/culture well ([5]; 20.7 nM TSA): 54912 and 41184 and 14328 and 243978 and 18168
- Myeloma cell number/culture well, Mean ([5]; 20.7 nM TSA): 74514
- Myeloma cell number/culture well ([5]; 41.3 nM TSA): 33350 and 26100 and 12765 and 235040 and 18876
- Myeloma cell number/culture well, Mean ([5]; 41.3 nM TSA): 65226
- IC50 ([1]; IL-6 2 ng/ml): 52.3 nM
- Cell viability (%) [6]: 100 ± 1%
- Cell viability (%) [7]: 100 ± 0%
- Cell viability (%) [8]: 70 ± 3%
- Cell viability (%) [9]: 100 ± 0%
- Cell viability (%) [10]: 100 ± 1%
- IC50 ([2]; IL-6 2 ng/ml): 11 nM
